Assay results from PubChem BioAssay AID302 (DTP/NCI, 2004).
Where “and” joins values, the source holds several entries; their conditions need not be identical. Equal entries are not always repeated. Inconclusive results and toxic doses are left out. Rule for the calls: active = survival T/C of 150% or more; inactive = T/C below 125% in these data. Starred links: 1 amine or outer side, 2 acyl side, 3 side chain; linkers in the order of their positions; H or OH if unused. Positions of bridges follow the written chain, without caps; N, C: chain ends. Non-standard residues stand in square brackets, D forms with d. Residues, ends and D or L forms follow the SMILES beside them. Chains are numbered I, II in the order given. Actinocin(9to1) = Cc1c2oc3c(C)ccc(C(=O)[*:1])c3nc-2c(C(=O)[*:2])c(N)c1=O; aThr = C[C@H](O)[C@H](N)C(=O)O; NMeV = CN[C@H](C(=O)O)C(C)C; Sar = CNCC(=O)O

System: BALB/c mice, Madison 109 lung carcinoma i.m., survival
Experiment: NCI In Vivo Anticancer Drug Screen. Data for tumor model Madison 109 Lung Carcinoma (intramuscular) in BALB/CM mice
Settings: endpoint: median survival time, higher = longer survival
Protocol: The antitumor activity of compounds was measured in mice bearing transplantable tumors. Survival or tumor size were measured and the results are expressed as the measurement made in the treated group (T) divided by the measurement made in the vehicle treated control group (C). The tumor model used in this assay is Madison 109 Lung Carcinoma (intramuscular) in BALB/CM mice

[1] = dose: 2.0 mg/kg/injection, schedule: Q01DX009 (ip), vehicle: saline
[2] = dose: 4.0 mg/kg/injection, schedule: Q01DX009 (ip), vehicle: saline
[3] = dose: 8.0 mg/kg/injection, schedule: Q01DX009 (ip), vehicle: saline
[4] = dose: 16.0 mg/kg/injection, schedule: Q01DX009 (ip), vehicle: saline
[5] = dose: 32.0 mg/kg/injection, schedule: Q01DX009 (ip), vehicle: saline
[6] = dose: 64.0 mg/kg/injection, schedule: Q01DX009 (ip), vehicle: saline
[7] = dose: 128.0 mg/kg/injection, schedule: Q01DX009 (ip), vehicle: saline
[8] = dose: 6.25 mg/kg/injection, schedule: Q01DX009 (ip), vehicle: saline with Tween-80
[9] = dose: 12.5 mg/kg/injection, schedule: Q01DX009 (ip), vehicle: saline with Tween-80
[10] = dose: 8.0 mg/kg/injection, schedule: Q01DX009 (ip), vehicle: saline with Tween-80
[11] = dose: 16.0 mg/kg/injection, schedule: Q01DX009 (ip), vehicle: saline with Tween-80
[12] = dose: 32.0 mg/kg/injection, schedule: Q01DX009 (ip), vehicle: saline with Tween-80
[13] = dose: 64.0 mg/kg/injection, schedule: Q01DX009 (ip), vehicle: saline with Tween-80
[14] = dose: 25.0 mg/kg/injection, schedule: Q01DX009 (ip), vehicle: saline with Tween-80
[15] = dose: 50.0 mg/kg/injection, schedule: Q01DX009 (ip), vehicle: saline with Tween-80
[16] = dose: 100.0 mg/kg/injection, schedule: Q01DX009 (ip), vehicle: saline with Tween-80
[17] = dose: 200.0 mg/kg/injection, schedule: Q01DX009 (ip), vehicle: saline with Tween-80
[18] = dose: 400.0 mg/kg/injection, schedule: Q01DX009 (ip), vehicle: saline with Tween-80
[19] = dose: 0.25 mg/kg/injection, schedule: Q01DX009 (ip), vehicle: saline
[20] = dose: 0.5 mg/kg/injection, schedule: Q01DX009 (ip), vehicle: saline
[21] = dose: 1.0 mg/kg/injection, schedule: Q01DX009 (ip), vehicle: saline
[22] = dose: 25.0 mg/kg/injection, schedule: Q01DX009 (ip), vehicle: saline
[23] = dose: 100.0 mg/kg/injection, schedule: Q01DX009 (ip), vehicle: saline
[24] = dose: 0.12 mg/kg/injection, schedule: Q01DX009 (ip), vehicle: saline
[25] = dose: 0.12 mg/kg/injection, schedule: Q01DX009 (ip), vehicle: water
[26] = dose: 0.5 mg/kg/injection, schedule: Q01DX009 (ip), vehicle: water
[27] = dose: 4.0 mg/kg/injection, schedule: Q01DX009 (ip), vehicle: saline with Tween-80

Measured: T/C

CC1=C(/C=C/C(C)=C/C=C/C(C)=C/CO)C(C)(C)CCC1
inactive: [1] 100 % of control | [2] 100 % of control | [3] 115 % of control | [4] 100 % of control | [5] 98 % of control | [6] 111 % of control

O=c1ccn(C2OC(CO)C(O)C2O)c(=O)[nH]1 (stereo not given)
inactive: [5] 111 % of control | [6] 99 % of control | [7] 93 % of control | dose: 256.0 mg/kg/injection, schedule: Q01DX009 (ip), vehicle: saline 104 % of control | dose: 512.0 mg/kg/injection, schedule: Q01DX009 (ip), vehicle: saline 98 % of control

Cc1cc(N(CC(C)Br)CC(C)Br)ccc1N=Nc1ccccc1C(=O)O (stereo not given)
inactive: dose: 3.12 mg/kg/injection, schedule: Q01DX009 (ip), vehicle: saline with Tween-80 110 % of control | [8] 105 % of control | [9] 113 % of control

Cc1c2oc3c(C)ccc(C(=O)N[C@@H]4C(=O)N[C@H](C(C)C)C(=O)N5CCC[C@H]5C(=O)N(C)CC(=O)N(C)[C@@H](C(C)C)C(=O)O[C@H]4C)c3nc-2c(C(=O)N[C@@H]2C(=O)N[C@H](C(C)C)C(=O)N3CCC[C@H]3C(=O)N(C)CC(=O)N(C)[C@@H](C(C)C)C(=O)O[C@H]2C)c(N)c1=O (I: [aThr][dV]P[Sar][NMeV] / II: [aThr][dV]P[Sar][NMeV]; ester I:1-I:C, II:1-II:C; linker I:N-II:N via Actinocin(9to1))
inactive: dose: 0.01 mg/kg/injection, schedule: Q01DX009 (ip), vehicle: saline 111 % of control | dose: 0.02 mg/kg/injection, schedule: Q01DX009 (ip), vehicle: saline 116 % of control | dose: 0.05 mg/kg/injection, schedule: Q01DX009 (ip), vehicle: saline 101 % of control

COc1ccc(C[C@H](N)C(=O)NC2C(CO)OC(n3cnc4c(N(C)C)ncnc43)C2O)cc1 (stereo not given in full)
inactive: [10] 101 % of control | [11] 104 % of control | [12] 104 % of control | [13] 121 % of control

Nc1ccc(S(N)(=O)=O)cc1
inactive: [14] 95 % of control | [15] 108 % of control and 115 % of control | [16] 119 % of control | [17] 105 % of control and 119 % of control | [18] 102 % of control and 113 % of control

CC(=O)Nc1ccc(/C=N/NC(N)=S)cc1
inactive: [14] 106 % of control and 108 % of control | [15] 94 % of control and 108 % of control | [16] 92 % of control and 124 % of control | [17] 89 % of control | [18] 113 % of control and 114 % of control

COc1cc2c(c(OC)c1OC)-c1ccc(OC)c(=O)cc1[C@@H](NC(C)=O)CC2
inactive: dose: 0.13 mg/kg/injection, schedule: Q01DX009 (ip), vehicle: saline 104 % of control | [19] 104 % of control | [20] 108 % of control | [21] 104 % of control

O=c1ccc2ccccc2o1
inactive: [14] 118 % of control | [15] 105 % of control and 111 % of control | [16] 100 % of control and 111 % of control | [17] 113 % of control

NNC(=O)c1ccncc1
inactive: [3] 101 % of control | [4] 111 % of control | [6] 107 % of control | [7] 108 % of control

ClC(Cl)=C(Cl)Cl
inactive: [15] 119 % of control | [16] 113 % of control | [17] 107 % of control

CN(C)C=O
inactive: dose: 12.5 mg/kg/injection, schedule: Q01DX009 (ip), vehicle: saline 102 % of control | [22] 101 % of control and 105 % of control | dose: 50.0 mg/kg/injection, schedule: Q01DX009 (ip), vehicle: saline 101 % of control and 115 % of control | [23] 92 % of control and 101 % of control and 120 % of control | dose: 200.0 mg/kg/injection, schedule: Q01DX009 (ip), vehicle: saline 96 % of control and 106 % of control | dose: 800.0 mg/kg/injection, schedule: Q01DX009 (ip), vehicle: saline 116 % of control and 120 % of control | dose: 1600.0 mg/kg/injection, schedule: Q01DX009 (ip), vehicle: saline 107 % of control

COc1cccc2c1C(=O)c1c(O)c3c(c(O)c1C2=O)C[C@@](O)(C(=O)CO)C[C@@H]3OC1CC(N)C(O)C(C)O1 (stereo not given in full)
inactive: [24] 110 % of control | [25] 122 % of control | [19] 114 % of control | [20] 112 % of control and 116 % of control | [26] 119 % of control | [21] 94 % of control and 111 % of control | dose: 1.0 mg/kg/injection, schedule: Q01DX009 (ip), vehicle: water 115 % of control | dose: 10.0 micrograms/mouse/injection, schedule: Q01DX005 (ip), vehicle: saline 96 % of control | dose: 20.0 micrograms/kg/injection, schedule: Q01DX005 (ip), vehicle: saline 123 % of control | dose: 20.0 micrograms/mouse/injection, schedule: Q01DX005 (ip), vehicle: saline 102 % of control | dose: 40.0 micrograms/kg/injection, schedule: Q01DX005 (ip), vehicle: saline 115 % of control | dose: 40.0 micrograms/mouse/injection, schedule: Q01DX005 (ip), vehicle: saline 105 % of control

CC(C)NCC(O)COc1cccc2ccccc12 (stereo not given)
inactive: [27] 111 % of control | [12] 124 % of control | [13] 120 % of control

CNNCc1ccc(C(=O)NC(C)C)cc1
inactive: [22] 116 % of control | [23] 114 % of control

CC1=C(/C=C/C(C)=C/C=C/C(C)=C/C(=O)O)C(C)(C)CCC1
inactive: [20] 107 % of control | [21] 110 % of control | [1] 100 % of control | [2] 93 % of control and 94 % of control | [3] 98 % of control and 100 % of control | [4] 108 % of control | [5] 104 % of control

N=C(N)c1ccc(/C=C/c2ccc(C(=N)N)cc2)cc1
inactive: [27] 106 % of control | [10] 109 % of control | [12] 119 % of control | [13] 116 % of control

ClC1C(Cl)C(Cl)C(Cl)C(Cl)C1Cl (stereo not given)
inactive: [14] 116 % of control | [16] 119 % of control | [18] 86 % of control

O=C(O)CCCc1ccc(N(CCCl)CCCl)cc1
inactive: dose: 1.5 mg/kg/injection, schedule: Q01DX009 (ip), vehicle: saline with Tween-80 103 % of control | dose: 3.0 mg/kg/injection, schedule: Q01DX009 (ip), vehicle: saline with Tween-80 101 % of control | dose: 6.0 mg/kg/injection, schedule: Q01DX009 (ip), vehicle: saline with Tween-80 88 % of control

CCOC(=O)CC(SP(=S)(OC)OC)C(=O)OCC (stereo not given)
inactive: [14] 108 % of control | [15] 112 % of control | [16] 121 % of control | [17] 96 % of control

CCN(CC)CCCC(C)Nc1c2ccc(Cl)cc2nc2ccc(OC)cc12 (stereo not given)
inactive: [10] 106 % of control | [11] 114 % of control | [12] 104 % of control | [13] 107 % of control

CCOC(OCC)C(=O)OCC(=O)[C@]1(O)Cc2c(O)c3c(c(O)c2[C@@H](OC2CC(N)C(O)C(C)O2)C1)C(=O)c1c(OC)cccc1C3=O (stereo not given in full)
inactive: [25] 115 % of control | dose: 0.25 mg/kg/injection, schedule: Q01DX009 (ip), vehicle: water 124 % of control | [26] 118 % of control

Nc1ccnc(=O)[nH]1
inactive: [12] 111 % of control and 115 % of control | [13] 98 % of control and 105 % of control | dose: 128.0 mg/kg/injection, schedule: Q01DX009 (ip), vehicle: saline with Tween-80 104 % of control and 105 % of control | dose: 256.0 mg/kg/injection, schedule: Q01DX009 (ip), vehicle: saline with Tween-80 93 % of control and 105 % of control | dose: 512.0 mg/kg/injection, schedule: Q01DX009 (ip), vehicle: saline with Tween-80 115 % of control and 117 % of control

COc1ccc(CC2C(=O)NC(C)C(=O)N(C)C3C(=O)N(C)C(Cc4ccc(O)c(c4)Oc4ccc(cc4)C3O)C(=O)NC(C)C(=O)NC(C)C(=O)N2C)cc1 (stereo not given)
inactive: [24] 110 % of control | [19] 113 % of control | [20] 113 % of control | [1] 103 % of control

O=C1c2c(O)ccc(O)c2C(=O)c2c(NCCNCCO)ccc(NCCNCCO)c21
inactive: [24] 108 % of control | [19] 117 % of control | [20] 123 % of control | [21] 123 % of control

NC(C/[N+]([O-])=N/O)C(=O)O (stereo not given)
inactive: [1] 96 % of control | [2] 116 % of control | [3] 93 % of control | [4] 118 % of control | [5] 99 % of control

ClC1=C(Cl)C2(Cl)C3C(Cl)C(Cl)CC3C1(Cl)C2(Cl)Cl (stereo not given)
inactive: [8] 110 % of control and 113 % of control | [9] 100 % of control and 120 % of control | [14] 89 % of control and 95 % of control | [15] 102 % of control and 116 % of control
